Entries after “also recorded” stand apart in the source; their conditions may differ.
What was measured:
[1] = system: P1-PDE4D7+/+ LNCaP cells; experiment: xCELLigence real-time proliferation of P1 LNCaP cells with PDE4D7 re-expression; format: cell-based
[2] = system: PDE4D7-knockdown LNCaP P1 cells; experiment: xCELLigence real-time proliferation of PDE4D7-knockdown P1 LNCaP cells; format: cell-based; conditions: for resistance to olaparib, PDE4D7-reduced cells: olaparib 10 and 30 μM
Source text: Stable shRNA-mediated lentiviral transduced LNCaP cell lines were generated by AMSBIO (Table 1). Briefly, shRNA-PDE4D7 was cloned into a lentivector and delivered into LNCaP clone FGC cells (ATCC) via lentivirus (MOI=10). Cells were maintained in puromycin-supplemented medium prior to selection of stably transduced cells. A stable shRNA-PDE4D7 LNCaP cell line was then re-transduced with lentivirus delivering PDE4D7 to generate a re-introduced cell line. Scrambled-shRNA was used as a control. All cells were cultured in RPMI 1640 medium (Gibco D), supplemented with 10% (v/v) foetal bovine serum, 1% (v/v) L-Glutamine and 1% (v/v) penicillin/streptomycin, and stored within a 37 °C incubator with 5% CO2.
(§1) xCELLigence Real-Time Cell Analysis (RTCA)
(§2) Real-time cell growth was analysed using the xCELLigence RTCA system (Agilent), which measures real-time cell adhesion across gold microelectrode biosensors on 96 well electronic plates (E-plates) within a 37 °C incubator with 5% CO2. Cellular adhesion influences electrical impedance which is converted into the cell index (CI) via RTCA software. Initial background measurements were recorded with 100 μL RPMI 1640 medium, followed by addition of 100 μL LNCaP cell suspension (10,000 cells/wells) for measurement of CI over time. Approximately 24 h after seeding, cells were treated with specified concentrations of drugs. Negative controls containing either 0.1% DMSO or untreated cells were also included. CI was transformed to normalised CI via the RTCA software to timepoint of treatment.

[3] = system: LNCaP WT cells; experiment: xCELLigence real-time proliferation of WT LNCaP cells; format: cell-based; conditions: for proliferation of WT LNCaPs: PDE4 activator, 1 and 10 μM
Experimental: as §1, §2

[4] = system: PARP cleavage in LNCaP P1; experiment: PARP/cleaved PARP western blot in PDE4D7-knockdown P1 LNCaP; format: cell-based; conditions: N=3
Experimental: (§3) FIG. 12: Ratio of PARP and cleaved PARP (PARPc) by western blot analysis in LNCaP WT and LNCaP PDE4D7 knockdown cell line P1 upon incubation with 0.1% DMSO (control), 10 μM Olaparib, and 10 nM docetaxel including quantitation of western blot bands normalised to DMSO.
(§4) Cells were lysed in 3T3 lysis buffer (50 mM NaCl, 50 mM NaF, 30 mM sodium pyrophosphate, 25 mM HEPES, 2.5 mM EDTA, 10% (v/v) glycerol, 1% (v/v) Triton X-100; pH 7.5) supplemented with cOmplete™ EDTA-free protease inhibitor cocktail (Sigma-Aldrich). Lysed cells were rotated end-over-end for 30 minutes at 4 °C, then centrifuged for 10 minutes at 13,000 RPM at […]. Supernatants were collected and protein concentration determined via Bradford assay. Equal concentrations of protein samples were separated via SDS-polyacrylamide gel electrophoresis (SDS-PAGE) and transferred onto nitrocellulose membranes for western blot. Membranes were blocked in 5% (w/v) milk powder in TBS-T for 1 h prior to primary and secondary antibody incubations. […]

[5] = system: PARP cleavage in LNCaP WT; experiment: PARP/cleaved PARP western blot in WT LNCaP; format: cell-based; conditions: N=3
Experimental: as §3, §4

[6] = system: LNCaP cells; conditions: Feiersinger et al., 2018; cited from earlier work
[7] = system: mCRPC; conditions: Lloyd et al., 2020; cited from earlier work
[8] = system: cAMP at membrane of P1 LNCaPs; experiment: cAMP FRET (CUTie) at plasma membrane of P1 LNCaP; format: cell-based; conditions: rolipram
Experimental: (§5) FIG. 18: Influence of PDE4D7 expression on cAMP dynamics within LNCaPs. Analysis of FRET ratio (YFP/CFP) at cytosol of WT (A) or P1 (C) LNCaPs, or at membrane of WT (B) or P1 (D) LNCaPs upon treatment with rolipram or combined treatment of forskolin+IBMX. (E & F) Real-time growth analysis of WT (G) and P1 (H) cells upon treatment with PDE4 activator MR-L2 (1-10 μM). Slope analysis from 0-48 post-treatment. Mean+/−SEM, N=3, **p<0.01, ***p<0.001.
(§6) Genetically encoded cAMP-fluorescent resonance energy transfer (FRET) probes were used to investigate CAMP dynamics at subcellular regions in WT and P1 LNCaPs. […] CUTie probes targeting the plasma-membrane (AKAP-79) or cytosol (CYTO-pDUAL) were obtained from the Zaccolo lab (REF). […] Given that PDE4D7 is known to be substantially membrane located [FIG. 1C]

[9] = system: cAMP at cytosol of P1 LNCaPs; experiment: cAMP FRET (CUTie) in cytosol of P1 LNCaP; format: cell-based; conditions: rolipram
Experimental: as §5, §6

[10] = system: cAMP at membrane of WT LNCaPs; experiment: cAMP FRET (CUTie) at plasma membrane of WT LNCaP; format: cell-based; conditions: rolipram
Experimental: as §5, §6

[11] = system: cAMP at cytosol of WT LNCaPs; experiment: cAMP FRET (CUTie) in cytosol of WT LNCaP; format: cell-based; conditions: rolipram
Experimental: as §5, §6

[12] = system: advanced PCa; conditions: in combination with docetaxel; cited from earlier work

CCc1nc(-c2ccc(Cl)c(F)c2)nn1CC(=O)NCc1cc(Cl)cc(Cl)c1 [ML-R2]
MLR2 sensitivity after PDE4D7 reintroduction to P1 ([1]; PDE4 activator, 10 μM): rescues phenotype of WT LNCaPs on MLR2 sensitivity
growth of P1 cells ([2]; PDE4 activator, 1-10 μM): inhibition of cell growth in P1 cells
growth of P1 cells ([2]; PDE4 activator, 1-10 μM, listed as MLR2): attenuates growth of P1 LNCaPs
growth of P1 cells ([2]; PDE4 activator, 1-10 μM, listed as MR-L2): inhibition of growth in P1 cells
proliferation of WT LNCaPs [3]: no effect on proliferation in WT LNCaPs at either concentration
proliferation of WT LNCaPs ([3]; listed as MLR2): no effect on growth of WT LNCaPs
proliferation of WT LNCaPs ([3]; listed as MR-L2): no effect on proliferation in WT LNCaPs

CC#C[C@]1(O)CC[C@H]2[C@@H]3CCC4=CC(=O)CCC4=C3[C@@H](c3ccc(N(C)C)cc3)C[C@@]21C [mifepristone]
proliferation of P1 LNCaPs ([2]; mifepristone 30 μM): significantly enhanced proliferation
growth curve over time, P1 LNCaPs ([2]; mifepristone 30 μM, compared to lower concentrations): initial growth was inhibited compared to lower concentrations, however this effect eventually wore off
P1 cell proliferation vs DMSO ([2]; mifepristone 0.3-10 μM): neither WT or P1 cell proliferation were reduced compared to DMSO
growth of WT LNCaPs ([3]; mifepristone 30 μM): successfully inhibited growth
WT cell proliferation vs DMSO ([3]; mifepristone 0.3-10 μM): neither WT or P1 cell proliferation were reduced compared to DMSO

O=C(c1cc(Cc2n[nH]c(=O)c3ccccc23)ccc1F)N1CCN(C(=O)C2CC2)CC1 [olaparib, Olaparib]
sensitivity to olaparib after PDE4D7 re-introduction ([1]; olaparib 10 μM): more sensitive to olaparib treatment; also recorded: re-sensitised
sensitivity to olaparib after PDE4D7 re-introduction ([1]; olaparib 10 μM, listed as Olaparib): enhances sensitivity to Olaparib
growth vs olaparib-treated P1 and DMSO-treated P1-PDE4D7+/+ cells ([1]; olaparib 10 μM, slope 0-48 h): statistically significant downregulation in growth
cleaved PARP ratio, P1 LNCaP ([4]; olaparib 10 μM): No increase in cleaved PARP ratio
PARP cleavage, WT LNCaP ([5]; olaparib 10 μM): increased PARP cleavage
effect on PDE4D7-deficient LNCaP proliferation ([2]; olaparib 0-30 μM): minimal
growth rate (slope analysis), P1 ([2]; olaparib 0.3 and 1 μM, slope 0-30 h): unexpected reduction in slope
resistance to olaparib, PDE4D7-reduced cells [2]: resistant to olaparib; also recorded: resistance
resistance to olaparib, PDE4D7-reduced cells ([2]; listed as Olaparib): resistance
resistance to PARP inhibition via olaparib upon PDE4D7 knockdown ([2]; overall conclusion): resistant to PARP inhibition via olaparib; also recorded: confers resistance to PARP-inhibition via olaparib; also recorded: enhances resistance to olaparib
effect against LNCaP cells [6]: effective against LNCaP cells
LNCaP WT proliferation ([3]; olaparib 0-30 μM): decreased in a dose-dependent manner
growth rate (slope analysis), WT ([3]; olaparib 3, 10 and 30 μM, slope 0-30 h): significant reductions in WT growth

C[C@@H]1COCCN1c1cc(C2([S@](C)(=N)=O)CC2)nc(-c2cc[nH]c3nccc2-3)n1 [ceralasertib, Ceralasertib]
sensitivity from growth curves, PDE4D7-knockdown (compared with WT) ([2]; ceralasertib 0-30 μM): highly susceptible to ATR-inhibition via ceralasertib
growth inhibition, P1 ([2]; ceralasertib 10-30 μM): most significant growth inhibition
sensitivity of PDE4D7-knockdown cells ([2]; ceralasertib 10-30 μM): extremely sensitive to ATR inhibition via ceralasertib
growth inhibition independent of PDE4D7 expression, P1 ([2]; summary statement, WT vs P1): reduce tumor growth independent of PDE4D7 expression levels; also recorded: inhibit LNCaP cell growth irrespective of PDE4D7 expression status
synergistic effects in combination with olaparib [7]: enhance synergistic effects in combination with olaparib in mCRPC; also recorded: enhance synergistic effects in combination with olaparib in metastatic CRPC
growth inhibition, WT ([3]; ceralasertib 10-30 μM): most significant growth inhibition
growth inhibition independent of PDE4D7 expression, WT ([3]; summary statement, WT vs P1): reduce tumor growth independent of PDE4D7 expression levels; also recorded: inhibit LNCaP cell growth irrespective of PDE4D7 expression status

CC(=O)O[C@@]12CO[C@@H]1C[C@H](O)[C@@]1(C)C(=O)[C@H](O)C3=C(C)[C@@H](OC(=O)[C@H](O)[C@@H](NC(=O)OC(C)(C)C)c4ccccc4)C[C@@](O)([C@@H](OC(=O)c4ccccc4)[C@H]21)C3(C)C [docetaxel, Docetaxel]
sensitivity to docetaxel after PDE4D7 re-introduction, vs P1 ([1]; docetaxel 10 μM): more sensitive to docetaxel treatment than P1
cleaved PARP ratio, P1 LNCaP ([4]; docetaxel 10 nM): No increase in cleaved PARP ratio
PARP cleavage, WT LNCaP ([5]; docetaxel 10 nM): increased PARP cleavage
growth of P1 cells ([2]; docetaxel 10 μM): no effect
growth of PDE4D7-knockdown LNCaPs vs DMSO ([2]; docetaxel, all concentrations (5-25 μM) except 10 μM, slope 0-48 h): significantly reduced growth
growth of WT LNCaPs ([3]; docetaxel 10 μM): effective in WT
growth of WT LNCaPs vs DMSO ([3]; docetaxel, all concentrations (5-25 μM), slope 0-48 h): significantly reduced growth

COc1ccc(C2CNC(=O)C2)cc1OC1CCCC1 (stereo not shown) [rolipram]
FRET ratio, membrane, P1 [8]: no obvious difference in FRET ratio
FRET ratio, cytosol, P1 [9]: no observable difference
FRET ratio / cAMP, membrane, WT [10]: downregulation of FRET ratio in the membrane compartment of WT LNCaPs, indicating an increase in cAMP concentration
FRET ratio, cytosol, WT [11]: no observable difference

COC(=O)Nc1nc2ccc(C(=O)c3ccccc3)cc2[nH]1 [mebendazole]
potential in advanced PCa treatment [12]: showed potential in advanced PCa treatment in combination with docetaxel
effect on P1 cells ([2]; mebendazole 1-10 μM, compared with WT): far more substantial and more significant, with initiation of immediate cell death in the cells at both concentrations; also recorded: PDE4D7-knockdown confers sensitivity to mebendazole in comparison to WT LNCaPs
WT cell growth ([3]; mebendazole 1-10 μM): significant downregulation of cell growth in a dose-dependent manner
